From patent publication US12648946B2, “Combination of antibody-pyrrolobenzodiazepine derivative conjugate and PARP inhibitor” (DAIICHI SANKYO COMPANY, LIMITED, priority 2019, dated 2026)
Like-named read-outs stand apart in the source and are kept apart here.

Columns and labels:
[1] = test system: human ovarian cancer cell line SK-OV-3; test: Cell growth inhibition test (4); assay type: cell-based; conditions: for IC50: SK-OV-3, 144 h
Protocol: Cells of the human ovarian cancer cell line SK-OV-3 purchased from ATCC (American Type Culture Collection) were used for evaluation. Cells were prepared with McCoy's 5A (Modified) Medium containing 10% fetal bovine serum (GE Healthcare) (Thermo Fisher Scientific; hereinafter, referred to as McCoy's SA medium) to reach 1.25×10^4 cells/mL, and 80 μL portions of them were added into a 96-well cell culture microplate. After addition of the cells, the cells were cultured at 37° C. and 5% CO2 overnight.
On the next day, 10 μL portions of pyrrolobenzodiazepine derivative A diluted with McCoy's 5A medium to 100 pM, 50 pM, 25 pM, 12.5 pM, 6.25 pM, 3.13 pM, 1.56 pM, or 0.78 pM were added to the microplate. To each well without pyrrolobenzodiazepine derivative A, 10 μL of McCoy's 5A medium was added. Further, 10 μL portions of talazoparib prepared with McCoy's 5A medium to reach 5 nM were added to the microplate. To each well without talazoparib, 10 μL of McCoy's 5A medium was added. Thereafter, the microplate was cultured at 37° C. and 5% CO2 for 6 days. After culturing, the microplate was taken out of the incubator, and left to stand at room temperature for 30 minutes. CellTiter-Glo Luminescent Cell Viability Assay (Promega Corporation) in an amount equivalent to that of the culture solution was added, and stirred using a plate mixer. The microplate was left to stand at room temperature for 10 minutes, and thereafter the amount of emission was measured by using a plate reader (PerkinElmer).
Cell survival rates in wells with derivative A were calculated by using the following formula.
[formula] • a: Mean value of amounts of emission from wells with derivative A • b: Mean value of amounts of emission from wells with medium • IC50 values were calculated by using the following formula. […]
Cell survival rates in wells with derivative A added together with 5 nM talazoparib were calculated by using the following formula. […]

[2] = test system: human breast cancer cell line JIMT-1; test: Antitumor test (2), subcutaneous xenograft; assay type: in vivo, mouse; conditions: single administration
Protocol: (§1) Mouse: Five- to six-week-old female BALB/c nude mice (Charles River Laboratories Japan, Inc.) were subjected to experiment. Assay and calculation formula: In all of the studies, the major axis and minor axis of a tumor were measured twice a week by using an electronic digital caliper ([…] Corp.), and the tumor volume (mm^3) was calculated. The calculation formula is as shown below. [formula] Each of the anti-CLDN6 antibody-drug conjugate ADC1, the anti-HER2 antibody-drug conjugate ADC2, and the anti-TROP2 antibody-drug conjugate ADC3 was diluted with ABS buffer (10 mM acetate buffer (pH 5.5), 5% sorbitol), and a liquid volume of 10 mL/kg was intravenously administered into the tail vein. […] LLC)/Dulbecco's Phosphate-Buffered Saline, and then a liquid volume of 10 mL/kg was intraperitoneally administered. […] LLC)/Dulbecco's Phosphate-Buffered Saline, and then a liquid volume of 10 mL/kg was orally administered. Niraparib was dissolved in DMSO, diluted with 0.5% methylcellulose, and then a liquid volume of 10 mL/kg was orally administered. The described method is common to Examples 34 to 37. […]

[3] = test system: human pharyngeal cancer cell line FaDu; test: Antitumor test (3), subcutaneous xenograft; assay type: in vivo, mouse; conditions: single administration
Protocol: as §1

**Q.** `COc1ccc(C2=CN3C(=O)c4cc(OC)c(OCCCCCOc5cc6c(cc5OC)C(=O)N5CC7(CC7)C[C@H]5C=N6)cc4NC[C@@H]3C2)cc1` [derivative A, (11a′S)-7′-Methoxy-8′-[(5-{[(11aS)-7-methoxy-2-(4-methoxyphenyl)-5-oxo-5,10,11,11a-tetrahydro-1H-pyrrolo[2,1-c][1,4]benzodiazepin-8-yl]oxy}pentyl)oxy]-1′,11a′-dihydro-5′H-spiro[cyclopropane-1,2′-pyrrolo[2,1-c][1,4]benzodiazepine]-5′-one] was tested. Which IC50 ([1]; read-out: IC50, growth-suppressing effect, added singly, SK-OV-3, 6 days) did it give?
**A.** 8.1 pM

**Q.** What about the IC50 ([1]; read-out: IC50, growth-suppressing effect, added together with 5 nM talazoparib, SK-OV-3, 6 days) of the same compound?
**A.** 4.6 pM

**Q.** With `O=C(c1cc(Cc2n[nH]c(=O)c3ccccc23)ccc1F)N1CCN(C(=O)C2CC2)CC1` [olaparib, reference compound] as the compound, how does the tumor growth-suppressing effect ([2]; olaparib 50 mg/kg i.p. for 5 days from Day 0, JIMT-1) read?
**A.** No tumor growth-suppressing effect

**Q.** What about the “tumor growth inhibition (TGI)” value ([3]; olaparib 50 mg/kg i.p. for 5 days from Day 0, Day 25, FaDu) of the same compound?
**A.** 7%

**Q.** What does the source list for `Cn1ncnc1[C@H]1c2n[nH]c(=O)c3cc(F)cc(c23)N[C@@H]1c1ccc(F)cc1` [talazoparib]?
**A.** inhibition at 0.005 µM ([1]; 144 h, 5 nM talazoparib alone, SK-OV-3, 6 days): < 10%; tumor growth-suppressing effect ([2]; talazoparib 0.8 mg/kg oral for 5 days from Day 0, JIMT-1): No tumor growth-suppressing effect; tumor growth inhibition (TGI) ([3]; talazoparib 0.8 mg/kg oral for 5 days from Day 0, Day 25, FaDu): 33%
